Experimental data: patent US12297203B2, “Pyrrolopyrimidine ITK inhibitors” (ACLARIS THERAPEUTICS, INC., priority 2018, dated 2025)
pIC50: −log10 of the molar value.

Assays:
[1] = system: ITK phosphorylation of its substrate, PLCγ1, at Y783; test: ITK target modulation assay (PLCγ1 Y783 phosphorylation, anti-CD3 stimulated Jurkat T cells); assay type: cell-based; details: Homo sapiens, Jurkat, anti-CD3 Dynabeads stimulation, read-out: PLC-γ Inh. IC50
Experimental: Target modulation was based upon the ability of a compound to inhibit ITK phosphorylation of its substrate, PLCγ1, at Y783. Human Jurkat T cells (ATCC TIB-152) were plated in V-bottom 96 well plates at 400,000 cells/well in 80 μL medium (RPMI1640 with 10% heat inactivated serum and 55 μM 2-mercaptoethanol and supplemented with glutamine/penicillin/streptomycin). Compounds were added as 10 μL of 10× working stock solutions in medium with 1% DMSO (or medium with 1% DMSO for controls) and placed in a 37° C. incubator with gentle shaking for 1 hour. Stimulation was carried out using anti-CD3 Dynabeads (Invitrogen catalog #1151D) to activate the T cell receptor and mimic antigen presenting cells. Beads were washed and resuspended in medium at 1.84×10^8 beads/ml. Beads were added rapidly to all compound containing and stimulation only wells at 10 μL/well (bead:cell=2:1) with gentle mixing of the bead source between each addition. Wells designated ‘unstimulated’ received 10 μL of media only. The plate was immediately sealed with a plate seal and cells pelleted at 400× g for 4 minutes. Media was removed using a multichannel aspirator, 25 μL of cold hypotonic lysis buffer (VWR M334-100 ml) plus 1×HALT Protease Inhibitor Cocktail (ThermoFisher #78437), 1× Phosphatase Inhibitor Cocktail 2 (Sigma Aldrich #P5726), 1× Phosphatase Inhibitor Cocktail 3 (Sigma Aldrich #P0044) and 2 mM PMSF was added per well. Cells were incubated on ice for 30 minutes to swell the cells then lysed by pipetting 20 times using a multichannel pipet. The plates were then resealed and centrifuged for 5 minutes at 400× g to pellet the cellular debris. Two μL of the soluble component of each sample was spotted onto nitrocellulose and allowed to dry for 30 minutes. Nitrocellulose was wet in 1× Tris Buffer Saline (20 mM Tris pH7.5, 150 mM NaCl) then blocked in LiCOR Odyssey Blocking Buffer (TBS) (LiCOR #927-50000) for 1 hour at room temperature with rocking. Following blocking, nitrocellulose was incubated in LiCOR Odyssey Blocking Buffer (TBS) plus 0.2% Tween20 plus anti-phospho-PLCγ1 (Y783) antibody (CST #2821S) at 1:1000 and anti-PLCγ1 (Abcam #41433) at 1:5000 with gentle rocking overnight at 4° C. Nitrocellulose was then washed four times for 5 minutes each with TBS plus 0.1% Tween20 (TBST) then incubated in LiCOR Odyssey Blocking Buffer (TBS) plus 0.2% Tween20 plus secondary antibodies IRDye 800CW (LiCOR 926-32211) and IRDye 680RD (LiCOR 926-68070) both at 1:15,000 with gentle rocking at room temperature in the dark for 1 hour. Nitrocellulose was then washed four times for 5 minutes each with TBST at room temperature in the dark. A final rinse with TBS was done prior to imaging and quantifying using the LiCOR Odyssey Imager and software respectively.

[2] = target: ITK (Homo sapiens (Human), UniProt Q08881); test: ITK inhibitor binding potency (LanthaScreen competitive binding assay); details: read-out: ITK Inh. IC50
Text: The ability of candidate compounds to interact with ITK is quantitated by a competitive binding assay using the LanthaScreen technology developed by Life Technologies. This assay is based on the binding of a proprietary, Alexa Fluor® 647-labeled, ATP-competitive kinase inhibitor (kinase tracer-236) to the ITK expression construct in the presence of a Europium-conjugated antibody, resulting in a FRET (fluorescence resonance energy transfer) signal. Displacement of the kinase tracer by compound results in a lower emission ratio upon excitation of the Europium chelate. Candidate compounds are designed as potential irreversible inhibitors of ITK, capable of ligating to an active site cysteine residue resulting in time dependent covalent binding. The time dependent nature of irreversible inhibition is investigated by performing the binding assay with and without a pre-incubation of compound and ITK. […] The inhibitory potency of candidate compounds is measured in 20 mM HEPES pH 7.5, 10 mM MgCl2, 0.01% BSA, 0.0005% Tween-20, and 2% DMSO in the presence of 10 nM ITK, 2 nM Eu-anti-GST antibody, and 50 nM kinase tracer-236 using a 384-well plate format. Background signal is defined in the absence of ITK and uninhibited signal is defined in the presence of vehicle (2% DMSO) alone. Compounds were evaluated in an 11 point dose-response ranging from 20 uM to 0.34 nM. The binding assays are performed under two preincubation conditions to evaluate time dependence of inhibition. For the pre-incubation assay, ITK and Eu-anti-GST antibody are pre-incubated with compound or vehicle for two hours prior to the addition of kinase tracer. The non-preincubated assay is run under conditions where ITK and Eu-anti-GST antibody are added to a mixture of compound and kinase tracer. IC50 values of compounds are determined using a 4 parameter logistical fit of emission ratio as a function of the concentration of compound.

[3] = target: JAK3 (Homo sapiens (Human), UniProt P52333); test: JAK3 enzyme activity assay (Caliper mobility shift); assay type: biochemical; details: ATP at Km level; read-out: JAK3 Inh. IC50
Text: The ability of candidate compounds to interact with JAK3 is quantitated by a mobility shift assay using an LC3000 instrument developed by Caliper Life Sciences. This assay is based on mobility shift electrophoresis, in which fluorescently labelled product and fluorescently labelled substrate peaks are separated and detected independently. JAK3 product/substrate separation is obtained using the following instrument settings: Pressure=−1.4 psi, Downstream voltage=−2550V and Upstream voltage=−800V. The inhibitory potency of candidate compounds of JAK3 is measured in 20 mM HEPES pH 7.5, 10 mM MgCl2, 0.01% BSA, 0.0005% Tween-20, and 2% DMSO in the presence of 2.5 nM JAK3 (Life Technologies Catalog #PV3855), […] (Anaspec Catalog #AS-64106) and […] (Km level) using a 384-well plate format. Background signal is defined in the absence of enzyme and uninhibited signal is defined in the presence of vehicle (2% DMSO) alone. Compounds were evaluated in an 11 point dose-response ranging from […] to 0.34 nM. IC50 values of compounds are determined using a 4 parameter logistical fit of emission ratio as a function of the concentration of compound.

[4] = system: JAK1/3 phosphorylation of its substrate, STAT5, at Y694; test: JAK1/3 target modulation assay (IL-2 stimulated STAT5 Y694 phosphorylation in PBMC); assay type: cell-based; details: Homo sapiens, PBMC, Primary human peripheral blood mononuclear cells, IL-2 25 ng/mL; read-out: IL2-STAT5 Inh. IC50
Experimental: Target modulation was based upon the ability of a compound to inhibit JAK1/3 phosphorylation of its substrate, STAT5, at Y694. Primary human peripheral blood mononuclear cells were plated in V-bottom 96 well plates at 200,000 cells/well in 120 μL medium (RPMI-1640 with 10% fetal bovine serum, 10 mM HEPES buffer, 12.2 mM 2-mercaptoethanol, and supplemented with glutamine/penicillin/streptomycin). Compounds were added as 15 μL of 10× working stock solutions in medium with 1% DMSO (or medium with 1% DMSO for controls) and placed in a 37° C. incubator with gentle shaking for 1 hour. Stimulation was carried out using recombinant human IL-2 (R&D Systems #202-IL-050) to activate JAK1/3. IL-2 stock solution was diluted in media to 250 ng/mL and was added rapidly to all compound containing and stimulation only wells at 15 μL/well (final concentration=25 ng/mL). Wells designated ‘unstimulated’ received 15 μL of media only. The plate was placed back in a 37° C. incubator with gentle shaking for 5 minutes. After stimulation, the plates were immediately sealed with a plate seal, and cells pelleted at 400× g for 5 minutes. Media was removed using a multichannel aspirator, and 75 μL of cold Tris lysis buffer (MSD #R60TX-3) plus 1× Protease Inhibitor Solution (MSD #R70AA-1), 1× Phosphatase Inhibitor I (MSD #R70AA-1), and 1× Phosphatase Inhibitor II (MSD #R70AA-1) was added per well. Cells were incubated at 4° C. with gentle shaking for at least 30 minutes to allow for complete lysis. The plates were removed from 4° C., and 25 μL of lysate from each well was added to the corresponding well on the MSD plate. Samples were analyzed by either an MSD multiplex kit for Phospho-STAT5a,b/Total-STAT5a,b (MSD #K15163D) or an MSD single-plex kit for Phospho-STAT5a,b (MSD #K150IGD). The protocols for the respective kits were followed, and the plates were read on the MSD SECTOR S 600.

Chain of JAK3 (P52333 781-1124): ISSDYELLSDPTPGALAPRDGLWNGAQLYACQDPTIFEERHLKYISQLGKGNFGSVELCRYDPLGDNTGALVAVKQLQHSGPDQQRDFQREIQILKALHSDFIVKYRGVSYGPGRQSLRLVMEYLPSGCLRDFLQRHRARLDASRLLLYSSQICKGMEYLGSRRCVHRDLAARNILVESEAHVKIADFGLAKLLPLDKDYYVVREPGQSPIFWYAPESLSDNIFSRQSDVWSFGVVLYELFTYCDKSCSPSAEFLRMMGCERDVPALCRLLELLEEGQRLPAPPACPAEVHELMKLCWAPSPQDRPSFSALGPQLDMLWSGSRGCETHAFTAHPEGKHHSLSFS
Chain of ITK (Q08881 whole entry): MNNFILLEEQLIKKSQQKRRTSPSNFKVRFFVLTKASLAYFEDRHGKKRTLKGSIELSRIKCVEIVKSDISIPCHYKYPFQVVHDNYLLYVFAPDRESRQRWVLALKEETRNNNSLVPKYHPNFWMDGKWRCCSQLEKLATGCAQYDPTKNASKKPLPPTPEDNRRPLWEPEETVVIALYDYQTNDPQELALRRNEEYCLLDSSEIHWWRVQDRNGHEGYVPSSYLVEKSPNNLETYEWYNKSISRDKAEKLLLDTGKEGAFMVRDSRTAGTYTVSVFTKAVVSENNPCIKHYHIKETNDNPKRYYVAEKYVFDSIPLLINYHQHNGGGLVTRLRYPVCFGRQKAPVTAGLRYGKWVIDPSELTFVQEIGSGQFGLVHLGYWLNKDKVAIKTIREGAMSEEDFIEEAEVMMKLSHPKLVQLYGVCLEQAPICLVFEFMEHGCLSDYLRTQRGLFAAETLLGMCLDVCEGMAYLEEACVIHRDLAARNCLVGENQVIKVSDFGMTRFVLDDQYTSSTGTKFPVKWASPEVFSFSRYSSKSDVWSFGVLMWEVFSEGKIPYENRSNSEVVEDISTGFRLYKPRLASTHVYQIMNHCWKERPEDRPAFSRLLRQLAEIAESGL

| Compound | pIC50 [1] | pIC50 [2] | pIC50 [3] | pIC50 [4] |
| --- | --- | --- | --- | --- |
| C=CC(=O)N1C[C@H](Nc2ncnc3[nH]cc([C@H]4CC4(F)F)c23)CC[C@@H]1C(C)C (single isomer, unassigned) [Example 63] | < 6.00 | < 7.00 | < 7.00 | < 6.00 |
| C=CC(=O)N1C[C@H](Nc2ncnc3[nH]cc([C@@H]4CC4(F)F)c23)CC[C@@H]1C(C)C (single isomer, unassigned) [Example 64] | < 6.00 | < 7.00 | < 7.00 | < 6.00 |
| C=CC(=O)N1C[C@@H](Nc2ncnc3[nH]cc([C@H]4CC4(F)F)c23)CC[C@H]1C(C)C (single isomer, unassigned) [Example 65] | ≥ 7.00 | ≥ 8.00 | ≥ 8.00 | 6.00 to 7.00 |
| C=CC(=O)N1C[C@@H](Nc2ncnc3[nH]cc([C@@H]4CC4(F)F)c23)CC[C@H]1C(C)C (single isomer, unassigned) [Example 66] | 6.00 to 7.00 | 7.00 to 8.00 | 7.00 to 8.00 | < 6.00 |
| C=CC(=O)N1C[C@H](Nc2ncnc3[nH]cc([C@H]4CC4(F)F)c23)CC[C@@H]1CC (single isomer, unassigned) [Example 67] | < 6.00 | < 7.00 | < 7.00 | < 6.00 |
| C=CC(=O)N1C[C@H](Nc2ncnc3[nH]cc([C@@H]4CC4(F)F)c23)CC[C@@H]1CC (single isomer, unassigned) [Example 68] | ≥ 7.00 | ≥ 8.00 | ≥ 8.00 | ≥ 7.00 |
| C=CC(=O)N1C[C@@H](Nc2ncnc3[nH]cc([C@H]4CC4(F)F)c23)CC[C@H]1CC (single isomer, unassigned) [Example 69] | 6.00 to 7.00 | 7.00 to 8.00 | 7.00 to 8.00 | < 6.00 |
| C=CC(=O)N1C[C@@H](Nc2ncnc3[nH]cc([C@@H]4CC4(F)F)c23)CC[C@H]1CC (single isomer, unassigned) [Example 70] | 6.00 to 7.00 | ≥ 8.00 | ≥ 8.00 | 6.00 to 7.00 |
| C=CC(=O)N1CCC[C@@H](Nc2ncnc3[nH]cc(C(=O)OCC)c23)C1 [Example 1, ethyl (R)-4-((1-acryloylpiperidin-3-yl)amino)-7H-pyrrolo[2,3-d]pyrimidine-5-carboxylate] | < 6.00 | ≥ 8.00 | ≥ 8.00 | 6.00 to 7.00 |
| C=CC(=O)N1C[C@H](Nc2ncnc3[nH]cc(C(=O)OCC)c23)CC[C@@H]1C [Example 2, ethyl 4-(((3R,6S)-1-acryloyl-6-methylpiperidin-3-yl)amino)-7H-pyrrolo[2,3-d]pyrimidine-5-carboxylate] | 6.00 to 7.00 | ≥ 8.00 | ≥ 8.00 | 6.00 to 7.00 |

Other lines, results leading:

| pIC50 [1] | pIC50 [2] | pIC50 [3] | pIC50 [4] | Compound |
| --- | --- | --- | --- | --- |
| < 6.00 | < 7.00 | < 7.00 | < 6.00 | C=C(C)C(=O)N1C[C@H](Nc2ncnc3[nH]cc([C@@H]4CC4(F)F)c23)CC[C@@H]1C (single isomer, unassigned) [Example 71] |
| ≥ 7.00 | ≥ 8.00 | ≥ 8.00 | ≥ 7.00 | C=CC(=O)N1C[C@H](Nc2ccnc3[nH]cc([C@H]4CC4(F)F)c23)CC[C@@H]1C (single isomer, unassigned) [Example 73] |
| 6.00 to 7.00 | ≥ 8.00 | ≥ 8.00 | 6.00 to 7.00 | C=CC(=O)N1C[C@H](Nc2ccnc3[nH]cc([C@@H]4CC4(F)F)c23)CC[C@@H]1C (single isomer, unassigned) [Example 74] |
| < 6.00 | < 7.00 | 7.00 to 8.00 | < 6.00 | C=CC(=O)N1C[C@H](Nc2ccnc3[nH]cc([C@H]4C[C@@H]4COC)c23)CC[C@@H]1C (single isomer, unassigned) [Example 76] |
| 6.00 to 7.00 | ≥ 8.00 | ≥ 8.00 | 6.00 to 7.00 | C=CC(=O)N1C[C@H](Nc2ccnc3[nH]cc([C@@H]4C[C@H]4COC)c23)CC[C@@H]1C (single isomer, unassigned) [Example 77] |
| < 6.00 | 7.00 to 8.00 | ≥ 8.00 | < 6.00 | C=CC(=O)N1CCC[C@@H](Nc2ncnc3[nH]cc([C@]45CCC[C@H]4C5(F)F)c23)C1 (single isomer, unassigned) [Example 80] |
